From ChEMBL document CHEMBL4673254, “Synthesis and Cytotoxicity Studies of Bioactive Benzofurans from Lavandula agustifolia and Modified Synthesis of Ailanthoidol, Homoegonol, and Egonol” (J Nat Prod, 2020) come the findings set out here.

Assay [1] concerns PC-3. Kind of assay: Cytotoxicity against human PC-3 cells assessed as reduction in cell viability at 1.25 to 20 uM after 72 hrs by Hoechst 33342 staining based assay. To be noted: dose 1.25-20 µM. In kind it is functional.
Assay [2] has as its system A549. Nature of the assay: Cytotoxicity against human A549 cells assessed as reduction in cell viability at 1.25 to 20 uM after 72 hrs by Hoechst 33342 staining based assay. In kind it is functional. To be noted: dose 1.25-20 µM.
Assay [3] has as its system HepG2. Nature of the assay: Cytotoxicity against human HepG2 cells assessed as reduction in cell viability at 1.25 to 20 uM after 72 hrs by Hoechst 33342 staining based assay. In kind it is functional. To be noted: dose 1.25-20 µM.
The test system of assay [4] is Hep 3B2. Kind of assay: Cytotoxicity against human Hep3B cells assessed as reduction in cell viability at 1.25 to 20 uM after 72 hrs by Hoechst 33342 staining based assay. In kind it is functional. The conditions noted are these: dose 1.25-20 µM.
For assay [5], the system named is MCF7. Kind of assay: Cytotoxicity against human MCF7 cells assessed as reduction in cell viability at 1.25 to 20 uM after 72 hrs by Hoechst 33342 staining based assay. It counts as functional. The conditions noted are these: dose 1.25-20 µM.
In assay [6] the target is Cellular tumor antigen p53 (Homo sapiens) (UniProt P04637). Kind of assay: Activation of P53 in human MCF7 cells assessed as increase in P53 phosphorylation at ser15 residues at 6 uM after 72 hrs by Western blot analysis. It counts as cell-based. To be noted: filed as activator. Background: Immunoblotting shows a protein as a band on a membrane.
Assay [7] shares this target. Nature of the assay: Activation of P53 in human A549 cells assessed as increase in P53 phosphorylation at ser15 residues at 6 uM after 72 hrs by Western blot analysis. In kind it is cell-based. The conditions noted are these: filed as activator.
Assay [8] in a line: Activation of P53 in human HepG2 cells assessed as increase in P53 phosphorylation at ser15 residues at 6 uM after 72 hrs by Western blot analysis. To be noted: filed as activator.
The subject of assay [9] is Cellular tumor antigen p53 (Homo sapiens), P04637 [UNDEFINED MUTATION]. Nature of the assay: Activation of P53 mutant in human Hep3B cells assessed as increase in p21 protein expression at ser15 residues at 6 uM after 72 hrs by Western blot analysis. It counts as cell-based. To be noted: filed as activator.
Assay [10] concerns Hep 3B2. Nature of the assay: Induction of apoptosis in human Hep3B cells assessed as increase in P53 protein expression at 6 uM after 72 hrs by Western blot analysis. It counts as functional, cell-based.
In assay [11] the target is Cellular tumor antigen p53 (Homo sapiens) (UniProt P04637). Kind of assay: Activation of P53 in human HepG2 cells assessed as increase in p21 protein expression at ser15 residues at 6 uM after 72 hrs by Western blot analysis. In kind it is cell-based. To be noted: filed as activator.
Assay [12] deals with A549. Nature of the assay: Induction of apoptosis in human A549 cells assessed as increase in P53 protein expression at 6 uM after 72 hrs by Western blot analysis. In kind it is functional, cell-based.
Assay [13] deals with MCF7. Kind of assay: Induction of apoptosis in human MCF7 cells assessed as increase in P53 protein expression at 6 uM after 72 hrs by Western blot analysis. It counts as functional, cell-based.
The subject of assay [14] is HepG2. Kind of assay: Induction of apoptosis in human HepG2 cells assessed as increase in cleaved PARP level at 6 uM after 72 hrs by Western blot analysis. In kind it is functional, cell-based.
For assay [15], the system named is Cellular tumor antigen p53 (Homo sapiens), P04637 [UNDEFINED MUTATION]. Kind of assay: Activation of P53 mutant in human PC-3 cells assessed as increase in p21 protein expression at ser15 residues at 6 uM after 72 hrs by Western blot analysis. In kind it is cell-based. To be noted: filed as activator.
Assay [16] relates to PC-3. Kind of assay: Induction of apoptosis in human PC-3 cells assessed as increase in P53 protein expression at 6 uM after 72 hrs by Western blot analysis. It counts as functional, cell-based.
For assay [17], the system named is A549. Kind of assay: Induction of apoptosis in human A549 cells assessed as increase in cleaved PARP level at 6 uM after 72 hrs by Western blot analysis. It counts as functional, cell-based.
Assay [18] has as its system Hep 3B2. Kind of assay: Induction of apoptosis in human Hep3B cells assessed as increase in cleaved PARP level at 6 uM after 72 hrs by Western blot analysis. In kind it is functional, cell-based.
Assay [19] concerns Cellular tumor antigen p53 (Homo sapiens), P04637 [UNDEFINED MUTATION]. Nature of the assay: Activation of P53 mutant in human PC-3 cells assessed as increase in P53 phosphorylation at ser15 residues at 6 uM after 72 hrs by Western blot analysis. It counts as cell-based.
The subject of assay [20] is PC-3. Kind of assay: Induction of apoptosis in human PC-3 cells assessed as increase in cleaved PARP level at 6 uM after 72 hrs by Western blot analysis. In kind it is functional, cell-based.
The subject of assay [21] is MCF7. Nature of the assay: Induction of apoptosis in human MCF7 cells assessed as increase in cleaved PARP level at 6 uM after 72 hrs by Western blot analysis. In kind it is functional, cell-based.
Assay [22] deals with Cellular tumor antigen p53 (Homo sapiens), P04637 [UNDEFINED MUTATION]. Kind of assay: Activation of P53 mutant in human Hep3B cells assessed as increase in P53 phosphorylation at ser15 residues at 6 uM after 72 hrs by Western blot analysis. In kind it is cell-based.
Assay [23] relates to HepG2. Nature of the assay: Induction of apoptosis in human HepG2 cells assessed as increase in P53 protein expression at 6 uM after 72 hrs by Western blot analysis. It counts as functional, cell-based.
For assay [24], the target named is Cellular tumor antigen p53 (Homo sapiens) (UniProt P04637). Kind of assay: Activation of P53 in human A549 cells assessed as increase in p21 protein expression at ser15 residues at 6 uM after 72 hrs by Western blot analysis. To be noted: filed as activator. In kind it is cell-based.
The target is the same in assay [25]. Kind of assay: Activation of P53 in human MCF7 cells assessed as increase in p21 protein expression at ser15 residues at 6 uM after 72 hrs by Western blot analysis. It counts as cell-based. The conditions noted are these: filed as activator.

Structures are written as SMILES. Calls of active or inactive are those of the source. The calls are words filed in the database; no cut-off is given here.

Sequence of Cellular tumor antigen p53 (Homo sapiens) (P04637 whole entry, looked up): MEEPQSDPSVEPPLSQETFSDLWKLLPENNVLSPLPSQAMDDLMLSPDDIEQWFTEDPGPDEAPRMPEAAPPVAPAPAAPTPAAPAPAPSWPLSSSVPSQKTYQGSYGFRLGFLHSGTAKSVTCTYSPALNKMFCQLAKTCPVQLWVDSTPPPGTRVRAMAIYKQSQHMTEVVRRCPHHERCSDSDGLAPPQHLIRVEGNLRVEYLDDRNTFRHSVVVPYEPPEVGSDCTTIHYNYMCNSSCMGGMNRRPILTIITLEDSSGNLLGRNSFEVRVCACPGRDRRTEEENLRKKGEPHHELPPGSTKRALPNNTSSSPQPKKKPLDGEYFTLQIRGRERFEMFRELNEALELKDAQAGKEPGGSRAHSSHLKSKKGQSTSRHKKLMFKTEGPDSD
Sequence of Cellular tumor antigen p53 (Homo sapiens), P04637 [UNDEFINED MUTATION] (P04637 whole entry, looked up, change not shown): as the sequence (P04637 whole entry, looked up) above

`COc1ccc(-c2cc3cc(CCO)c(OC)cc3o2)cc1`: the result with PC-3 [1], in the assay with A549 [2], in the assay with HepG2 [3], in the assay on Hep 3B2 [4] and in the assay with MCF7 [5] was inactive.
Take `COc1ccc(-c2oc3cc(OC)c(CCO)cc3c2C)cc1`: the result with PC-3 [1], with A549 [2], in the assay with HepG2 [3], in the assay on Hep 3B2 [4] and in the assay with MCF7 [5] was inactive.
For the molecule `COc1ccc(-c2oc3c(OC)cc(CCO)cc3c2C)cc1`, the result with PC-3 [1], in the assay with A549 [2], in the assay on HepG2 [3], in the assay with Hep 3B2 [4] and in the assay on MCF7 [5] was inactive.
`COc1cc(CCO)cc2c(C)c(-c3ccc(O)cc3)oc12`: the result (in [6]; with PC-3 [1]; in assay [7]; with A549 [2]; in assay [8]; in assay [9]) was Active. The result (in the assay with HepG2 [3]; in assay [11]; in the assay on A549 [12]; in the assay with MCF7 [13]; with HepG2 [14]; in the assay on Hep 3B2 [4]) was Active. The result (in assay [15]; in the assay on A549 [17]; in the assay on Hep 3B2 [18]; in the assay on MCF7 [5]; in the assay with PC-3 [20]; in the assay with MCF7 [21]) was Active. The outcome (in the assay on HepG2 [23]; in assay [24]; in [25]) was Active. Moreover, the result (in the assay on Hep 3B2 [10]; in the assay on PC-3 [16]; in assay [19]; in assay [22]) was inactive.
`COc1ccc(-c2cc3cc(CCO)cc(OC)c3o2)cc1`: the outcome in the assay with PC-3 [1], in the assay on A549 [2], with HepG2 [3], in the assay with Hep 3B2 [4] and with MCF7 [5] was inactive.
Turning to `COc1cc2oc(-c3ccc(O)cc3)cc2cc1CCO`, the outcome (in assay [6]; with PC-3 [1]; in [7]; in the assay on A549 [2]; in assay [8]; in assay [9]) was Active. The outcome (in the assay with HepG2 [3]; in assay [11]; in the assay on A549 [12]; in the assay with MCF7 [13]; in the assay with HepG2 [14]; in the assay with Hep 3B2 [4]) was Active. Moreover, the outcome (in assay [15]; in the assay on A549 [17]; in the assay with Hep 3B2 [18]; with MCF7 [5]; with PC-3 [20]; with MCF7 [21]) was Active. For the same molecule, the result (in the assay with HepG2 [23]; in assay [24]; in [25]) was Active. The outcome (in the assay with Hep 3B2 [10]; with PC-3 [16]; in assay [19]; in assay [22]) was inactive.
On to `COc1cc2oc(-c3ccc(O)cc3)c(C)c2cc1CCO`, for which the result in the assay with PC-3 [1], with A549 [2], in the assay on HepG2 [3], in the assay with Hep 3B2 [4] and in the assay with MCF7 [5] was Active.
As for `COc1cc(CCO)cc2cc(-c3ccc(O)cc3)oc12`, the result (in assay [6]; with PC-3 [1]; in assay [7]; in the assay with A549 [2]; in assay [8]; in [9]) was Active. Besides, the outcome (in the assay on HepG2 [3]; in [11]; in the assay with A549 [12]; with MCF7 [13]; with HepG2 [14]; in the assay with Hep 3B2 [4]) was Active. Besides, the outcome (in assay [15]; with A549 [17]; with Hep 3B2 [18]; in the assay with MCF7 [5]; in the assay on PC-3 [20]; in the assay on MCF7 [21]) was Active. Further, the result (with HepG2 [23]; in assay [24]; in assay [25]) was Active. Further, the result (in the assay with Hep 3B2 [10]; with PC-3 [16]; in assay [19]; in assay [22]) was inactive.
